Experimental data taken from patent publication US6683103B2, “Sulfonamides for treatment of endothelin-mediated disorders” (Texas Biotechnology Corporation, priority 1997, dated 2004).

Assays:
human ETB receptor = target: T1, human ETB receptor (Homo sapiens, UniProt P24530); test: Binding Test #2: inhibition of 125I-ET-1 binding to ETB receptors (transfected COS7 cell membranes); conditions: Table 1; † incubation at 24° C.; read-out: ETB
T1 construct: expressed in transfected cells; host or cells: COS7 cells
T1 sequence (P24530 27-442): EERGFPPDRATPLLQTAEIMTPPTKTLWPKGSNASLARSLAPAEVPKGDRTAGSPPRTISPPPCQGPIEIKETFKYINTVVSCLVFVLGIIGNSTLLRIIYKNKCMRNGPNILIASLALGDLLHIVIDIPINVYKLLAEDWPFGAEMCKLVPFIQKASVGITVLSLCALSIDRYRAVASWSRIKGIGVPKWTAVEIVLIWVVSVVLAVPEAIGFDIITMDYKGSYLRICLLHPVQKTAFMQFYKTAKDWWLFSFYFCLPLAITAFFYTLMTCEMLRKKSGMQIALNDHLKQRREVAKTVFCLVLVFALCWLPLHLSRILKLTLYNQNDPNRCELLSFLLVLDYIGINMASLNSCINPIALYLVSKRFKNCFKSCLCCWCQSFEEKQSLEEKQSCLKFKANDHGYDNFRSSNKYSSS
Summary of the method: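 Competition with 125I-ET-1 for binding to membranes from COS7 cells transfected with human ETB receptor, used at 1 μg/50 μl binding buffer. Membranes prepared in HEPES pH 7.4 with aprotinin, including a DNase/MnCl2 step at 37 °C for 30 min.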

[1] = test system: DOCA-salt hypertensive rat; test: Deoxycorticosterone acetate (DOCA)-salt hypertensive rat model; assay type: in vivo
Method: E. Deoxycorticosterone Acetate (DOCA)-Salt Hypertensive Rat Model for Assessing in vivo Activity of Selected Compounds
Selected compounds disclosed herein have been tested for activity in the deoxycorticosterone acetate (DOCA)-salt hypertensive rat model. To perform these tests, silastic MDX4-4210 elastomer implants containing 47 mg (DOCA) were prepared according to the method of Ornmsbee et al. ((1973) the J. Pharm. Sci. 62:255-257). Briefly, DOCA is incorporated into silicon rubber implants for sustained release. To prepare the implants the DOCA is incorporated into unpolymerized silicone rubber, catalyst is added and the mixture is cast in a hemicylindrical shape.
Sprague Dawley rats (7-8 weeks old) were unilaterally nephrectomized under ketamine anesthesia and a DOCA-implant was placed on the left lateral dorsal abdomen of the animal. The rats were allowed to recover for three weeks. During recovery they were permitted free access to normal rat chow and 0.9% NaCl drinking solution in place of drinking water. The rats develop hypertension within 3 weeks.
All animals were used in the tests between 21 and 30 days post surgery. The mean arterial blood pressure in these animals ranged from 165-200 mm Hg.
On the day of experimentation, catheters were inserted under brevital anesthesia into the right femoral artery for measurement of blood pressure, and into the right femoral vein for administration of a selected compound. The animals were placed in a restrainer and allowed to recover for a minimum of 60 min or until a steady mean arterial blood pressure was recorded. At that time, the selected compound or control vehicle was administered either intravenously, as a 60 minute infusion, or orally by oral gavage. Blood pressure was recorded continuously for a further 10 hrs.

Papp (Table 4) = assay type: in vitro ADME
[2] = Oral half-life and peak plasma levels in rat; assay type: in vivo
From the text: As used herein, bioavailability refers to the rate and extent of absorption. Methods for determining bioavailability are well known to those of skill in the art. For example, bioavailability of any of the compounds described herein can be determined empirically by administration of the compound to an animal, followed by taking blood samples over time and measuring the blood concentration of the compound. In vivo half life (t½) is defined as the time it takes for the concentration of the compound in the blood to be reduced by one-half. Estimations of the area under the curve for intravenous administration can be used to estimate the area under the curve for oral administration, yielding bioavailability data. See, e.q., Milo Gibal (1991) Biopharmaceutics and Pharmacology, 4th edition (Lea and Sediger).
Table 4 lists oral half-life, bioavailability, and in vivo activity of selected exemplary compounds. The in vivo activity was measured in a pulmonary hypertension model and is a measure of the activity of the compounds at selected dosages.

[3] = test system: Pulmonary Hypertension model; test: Pulmonary hypertension model, in vivo efficacy; set-up: species or system rat; key to in vivo Efficacy: ++ effective at 5 mg/kg; − no effect at 5 mg/kg; + effective at 15 mg/kg; conditions: Pulmonary Hypertension model
Method: As used herein, efficacy refers to the maximal effect that can be produced by a compound. Efficacy can be determined by methods known to those of skill in the art. For example, it can be determined by the properties of the compound and its receptor-effector system and is reflected in the plateau of the concentration-effect curve. In vivo efficacy refers to efficacy which is determined in an animal model. For example, in vivo efficacy of the compounds described herein can be determined by amelioration of hypoxia-induced pulmonary hypertension in rat. In this context, in vivo efficacy refers to the ability of a compound to restore an elevated pulmonary artery pressure to a normal value. […] J. Physiol. […] The in vivo activity was measured in a pulmonary hypertension model and is a measure of the activity of the compounds at selected dosages.

[4] = Stability of solutions, percent remaining by HPLC; assay type: physicochemical; conditions: 150 mg/mL; LABRASOL; 24 h

SMILES	IC50 (human ETB receptor) [µM]	effect on blood pressure [1]	Papp (Papp (Table 4)) [×10⁻⁶ cm/s]	Peak Plasma Levels ([2]; in vivo) [µg/mL]	POt½ in Rat ([2]; oral) [h]	in vivo Efficacy [3]	percent remaining (HPLC) [4] [%]
Cc1noc(NS(=O)(=O)c2ccsc2C(=O)Cc2ccc3c(c2)OCO3)c1Cl [N-(4-chloro-3-methyl-5-isoxazolyl)-2-[(3,4-(methylenedioxy)phenylacetyl]thiophene-3-sulfonamide]	6.5	effective in decreasing blood pressure	–	–	–	–	–
Cc1cc2c(cc1CC(=O)c1sccc1S(=O)(=O)Nc1onc(C)c1Cl)OCO2 [N-(4-chloro-3-methyl-5-isoxazolyl)-2-[2-methyl-4,5-(methylenedioxy)phenylacetyl]thiophene-3-sulfonamide]	9	–	2.32	173	4.1	++	90.1
